Experiment [1] in a line: Suppression of discoloration by immersing green soybeans in aqueous solutions of anti-oxidation materials. More on the design: species or system green soybean. Conditions: green soybeans immersed in aqueous solutions, permeation into tissues under depressurization. An excerpt: A test for suppressing discoloration of a green color was made by immersing green soybeans in aqueous solutions of various anti-oxidation materials, such as ascorbic acid, tocopherol and carotenoids, thus causing the anti-oxidation materials to permeate into tissues under depressurization and to capture radicals inducing decomposition of chlorophyll.

Experiment [2] can be described thus: Suppression of discoloration of a chlorophyll/ethanol solution preserved under illumination of light. Conditions: 10° C., 17 hours, 1600 Lux; for Suppression Effect (%): 0.01 M anti-oxidation material in chlorophyll/ethanol solution (25 μg/ml), absorbance at 640 nm, relative to control sample; for effect of retaining a green color against light: addition to chlorophyll/ethanol solution. The method, then: Next, to check the effect resulting when anti-oxidation materials permeated into tissues, particularly chloroplasts, of a living body, a test for suppressing discoloration of a green color was made by preparing a chlorophyll/ethanol solution including chlorophyll, dissolving each of various anti-oxidation materials in the solution, and preserving it under illumination of light. More specifically, 4 ml of the chlorophyll/ethanol solution was prepared by adding 25 μg of chlorophyll in 1 ml of ethanol, and each anti-oxidation material, i.e., 0.01 M of ascorbic acid (aqueous solution), 0.01 M of α-tochopherol (ethanol solution), and 0.01 M of β-carotene (ethanol solution), was dissolved in the chlorophyll/ethanol solution. After enclosing each test sample, the test sample was preserved at 10° C. for 17 hours under 1600 Lux. Then, a change in absorbance of the test sample at 640 nm between before and after the preservation was measured. A higher value of the absorbance at 640 nm means a larger amount of chlorophyll. In Table 1, “control sample” represents a sample in which water was added, and “suppression effect” represents a chlorophyll reduction rate of each test sample calculated on condition that a chlorophyll reduction rate of the control sample after the preservation under illumination of light was assumed to be 100.

This is an account of results in patent US20040062842A1, “Green soybeans whose color is prevented from discoloring” (priority 2002, published 2004).

With tocopherol, the “effect of suppressing discoloration of a green color” value in experiment [1] is “hardly confirmed”.

`O=C1O[C@H]([C@@H](O)CO)C(O)=C1O` [Ascorbic acid aqueous solution, ascorbic acid]: the “Suppression Effect (%)” value in experiment [2] is listed as 0%. The “effect of suppressing discoloration of a green color” value in experiment [1] is “hardly confirmed”.

With `Cc1c(C)c2c(c(C)c1O)CCC(C)(CCCC(C)CCCC(C)CCCC(C)C)O2` (stereo not drawn) [α-Tochopherol/ethanol solution, α-tochopherol], in experiment [2], the “Suppression Effect (%)” value is on record as 52.4% and the “effect of retaining a green color against light” value is “apparent effect of retaining a green color against light was confirmed”.

Regarding `CC1=C(/C=C/C(C)=C/C=C/C(C)=C/C=C/C=C(C)/C=C/C=C(C)/C=C/C2=C(C)CCCC2(C)C)C(C)(C)CCC1` [β-Carotene/ethanol solution, β-carotene], in experiment [2], the “Suppression Effect (%)” value came to 56.1% and the “effect of retaining a green color against light” value is reported as “apparent effect of retaining a green color against light was confirmed”.
